Values of other authors in patent US20060165781A1, “Orally disintegrating tablets and process for obtaining them” (priority 2002, published 2006).

Conditions: 5 g in 150 mL of water at 20° C.

Time to dissolve in water: approximately 5 s
SMILES: OC[C@@H](O)[C@@H](O)[C@H](O)[C@H](O)CO [Spray-dried mannitol, mannitol]
